Tested on: oxazolone-induced colitis mice
Test: Oxazolone-induced acute colitis in mice for ulcerative colitis
Type: in vivo, Balb/c mice
Details: compound 1 5 mg/kg, tofacitinib 10 mg/kg; for bodyweight loss (bodyweight change, FIG. 1): PO BID 5 days (Days 4 to 8 after sensitization) in 0.5% CMC-Na; for DAI score (disease activity index, FIG. 2): PO BID 5 days, scored per Table 2; for colon density (FIG. 5) / colon length (FIG. 4) / colon weight (FIG. 3): colon collected Day 9, PO BID 5 days
Description: Compound 1 (i.e., lifitegrast) was evaluated in an oxazolone-induced colitis murine model, along with tofacitinib. Boirivant et al., J. Exp. Med. 1998, 188, 1929-39. Balb/c mice were randomly divided into 4 groups according to Table 1: 2 treatment groups (Treatment Groups), 1 vehicle group (Vehicle Group), and 1 sham group (Sham Group). The mice in Treatment and Vehicle Groups were sensitized with 200 μL of 2% oxazolone in acetone and olive oil (1:4), followed by injection of 100 μL of 1.5% oxazolone into the rectum of each mouse on Day 5 after sensitization. The mice in Sham Group were sensitized with 200 μL of a mixture of acetone and olive oil (1:4) without oxazolone, followed by injection of 100 μL of 50% ethanol/water into the rectum of each mouse on Day 5 after sensitization. Before the injection into the rectum, each mouse was anesthetized intraperitoneally with tribromoethanol (0.3 mL, 1.25%). From Days 4 to 8 after sensitization, the mice in Sham Group and Vehicle Group were each given 0.5% CMC-Na by gavage, and the mice in Treatment Groups were each given by gavage tofacitinib or compound 1 in 0.5% CMC-Na, respectively, according to the dosing schedule shown in Table 1.
The bodyweight of each mouse was measured daily. From Day 4 after sensitization, the fecal property and occult blood as determined with a fecal occult blood test (FOBT) of each mouse were measured daily to calculate a disease activity index (DAI) according to Table 2.
On Day 9 after sensitization, each mouse was euthanized and blood was collected from the heart. A serum was prepared and frozen for the determination of inflammatory factors.
The colon of each mouse was collected and photographed, and the colon length was measured and weighed after the removal of the content of the colon. A part of each colon collected was fixed using the Swiss roll technique in neutral paraformaldehyde for pathological scoring (Table 3) as described in Bialkowska et al., J. Vis. Exp. 2016, 113, e54161. The rest of the colon mucosa of each mouse was scraped and frozen for the determination of inflammatory factors.

SMILES	bodyweight loss (bodyweight change, FIG. 1)	DAI score (disease activity index, FIG. 2)	colon density (FIG. 5)	colon length (FIG. 4)	colon weight (FIG. 3)
C[C@@H]1CCN(C(=O)CC#N)C[C@@H]1N(C)c1ncnc2[nH]ccc12 [tofacitinib]	slowed the bodyweight loss	improved the DAI score	able to reverse the disease effects	able to reverse the disease effects	able to reverse the disease effects
CS(=O)(=O)c1cccc(C[C@H](NC(=O)c2c(Cl)cc3c(c2Cl)CCN(C(=O)c2ccc4ccoc4c2)C3)C(=O)O)c1 [compound 1, (S)-2-(2-(benzofuran-6-carbonyl)-5,7-dichloro-1,2,3,4-tetrahydroisoquinoline-6-carboxamido)-3-(3-(methylsulfonyl)phenyl)propanoic acid]	slowed the bodyweight loss	improved the DAI score	able to reverse the disease effects	able to reverse the disease effects	able to reverse the disease effects
